Usually IC50 stands for the midpoint of a concentration-inhibition curve.

For 12 compounds, IC50 results are on record in patent US20230312587A1, “PTERIDINONE COMPOUNDS AND USES THEREOF” (Vertex Pharmaceutical Incorporated, priority 2018, published 2023).

For this experiment, the system named is β-catenin-TCF-mediated reporter transcription activity in Colo 205 cells. Nature of the experiment: Colo 205 reporter assay (TCF/LEF luciferase). The experiment is classed as cell-based. Conditions: Colo 205 TCF/LEF luciferase reporter, read-out: TCF reporter Colo205 IC50. The method, boiled down:
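Luciferase signal from a TCF/LEF-driven reporter, stably integrated in Colo 205 colon cancer cells, was measured 5 h after compound addition.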
On the technique in general: Reporter assays use an easily measured gene product as a stand-in for the process of interest.

The mark [1] stands for this setting: Homo sapiens, COLO 205, 5 h, five hours after addition of compound.

Structures are written as SMILES. Like-named read-outs stand apart in the source and are kept apart here.

In the case of `Cc1nc(NCc2cnn(Cc3ccccc3C(C)C)c2)nc2c1NC(=O)[C@H](C)N2C` [Compound 78, (7S)-2-(((1-(2-isopropylbenzyl)-1H-pyrazol-4-yl)methyl)amino)-4,7,8-trimethyl-7,8-dihydropteridin-6(5H)-one], the IC50 under setting [1] was less than 300 nM. `Cc1cc(F)ncc1Cn1cc(CNc2nc(C)c3c(n2)N(C)[C@H](C(C)C)C(=O)N3)cn1` [Compound I-1643]: the IC50 (Homo sapiens, COLO 205, 5 h, R-isomer at C2 (corresponding to C2 S-isomer), 5 h) lay in the range of 1000 to 5000 nM. In the case of `COc1c(F)cc(Cn2cc(CNc3nc(C)c4c(n3)N(C)[C@@H]([C@H](C)OC(C)(C)C)C(=O)N4)cn2)cc1F` [Compound 746, (S)-7-((S)-1-(tert-butoxy)ethyl)-2-(((1-(3,5-difluoro-4-methoxybenzyl)-1H-pyrazol-4-yl)methyl)amino)-4,8-dimethyl-7,8-dihydropteridin-6(5H)-one], the IC50 under setting [1] was in the range of 300 to 1000 nM. `COc1cc(Cn2cc(CNc3nc(C)c4c(n3)N(C)[C@@H](C)C(=O)N4)cn2)ccn1` [Compound 203, (7S)-2-(((1-((2-methoxypyridin-4-yl)methyl)-1H-pyrazol-4-yl)methyl)amino)-4,7,8-trimethyl-7,8-dihydropteridin-6(5H)-one]: the concentration for half-maximal inhibition (IC50) under setting [1] is less than 300 nM.

For the compound `CC[C@H]1C(=O)N(C)c2cnc(NCc3cnn(Cc4ccc(F)cc4)c3)nc2N1C(C)C` [Compound 52, (7S)-7-ethyl-2-(((1-(4-fluorobenzyl)-1H-pyrazol-4-yl)methyl)amino)-8-isopropyl-5-methyl-7,8-dihydropteridin-6(5H)-one], the IC50 (five hours after addition of compound) lay within 300 to 1000 nM. For the compound `Cc1nc(N[C@H]2C[C@@H](COc3ccc(Cl)nc3)C2)nc2c1NC(=O)[C@H](C(C)C)N2C` [Compound 570, (S)-2-((cis-3-(((6-chloropyridin-3-yl)oxy)methyl)cyclobutyl)amino)-7-isopropyl-4,8-dimethyl-7,8-dihydropteridin-6(5H)-one], the half-maximal inhibitory concentration (IC50) under setting [1] was less than 300 nM. Regarding `Cc1nc(NCc2ccc(OC3CCN(c4ccc(F)cc4)C3)nc2)nc2c1NC(=O)[C@H](C)N2C` (stereo partly drawn) [Compound 169, (7S)-2-(((6-((1-(4-fluorophenyl)pyrrolidin-3-yl)oxy)pyridin-3-yl)methyl)amino)-4,7,8-trimethyl-7,8-dihydropteridin-6(5H)-one], the IC50 under setting [1] was less than 300 nM.

In the case of `Cc1nc(NCc2cnn(Cc3cnccc3C(F)(F)F)c2)nc2c1NC(=O)[C@H](C)N2C` [Compound 182, (7S)-4,7,8-trimethyl-2-(((1-((4-(trifluoromethyl)pyridin-3-yl)methyl)-1H-pyrazol-4-yl)methyl)amino)-7,8-dihydropteridin-6(5H)-one], the IC50 under setting [1] was less than 300 nM. As for `Cc1nc(NC2CN(C(=O)[C@@H](C)c3ccccc3)C2)nc2c1NC(=O)[C@H](C(C)C)N2C` [Compound 641, (S)-7-isopropyl-4,8-dimethyl-2-((1-((S)-2-phenylpropanoyl)azetidin-3-yl)amino)-7,8-dihydropteridin-6(5H)-one], the half-inhibitory concentration (IC50) under setting [1] is no less than 5000 nM. Regarding `Cc1nc(N[C@H]2C[C@H](N(C)c3cnc(C(F)(F)F)cn3)C2)nc2c1NC(=O)[C@H](C)N2C` [Compound 683, (S)-4,7,8-trimethyl-2-((trans-3-(methyl(5-(trifluoromethyl)pyrazin-2-yl)amino)cyclobutyl)amino)-7,8-dihydropteridin-6(5H)-one], under setting [1], the IC50 fell in the range of 300 to 1000 nM.

Regarding `Cc1nc(N[C@H]2C[C@@H](NC(=O)Oc3ccc(F)cc3)C2)nc2c1NC(=O)[C@H](C)N2C` [Compound 464, 4-fluorophenyl (cis-3-(((S)-4,7,8-trimethyl-6-oxo-5,6,7,8-tetrahydropteridin-2-yl)amino)cyclobutyl)carbamate], for the setting “Homo sapiens, 5 h, five hours after addition of compound”, the 50% inhibitory concentration (IC50) was 300 to 1000 nM.

Turning to `Cc1nc(N[C@@H]2CCc3c2cnn3Cc2ccc(C(F)(F)F)nc2)nc2c1NC(=O)[C@H](C(C)C)N2C` [Compound 520, (S)-7-isopropyl-4,8-dimethyl-2-(((R)-1-((6-(trifluoromethyl)pyridin-3-yl)methyl)-1,4,5,6-tetrahydrocyclopenta[c]pyrazol-4-yl)amino)-7,8-dihydropteridin-6(5H)-one], the concentration for half-maximal inhibition (IC50) under setting [1] is no less than 5000 nM.
